The text below walks through data of patent publication US11904037B2, “Enzymatic molecule mimicking anti-oxidant activity” (BIONUCLEI, priority 2018, dated 2024).

The series in a line: ABTS degradation, comparison with tocopherol after dark or UV exposure. As to conditions: colloids 0.5 g/L, tocopherol 1.5 g/L. As for the experimental part: The protocol for preparing the solutions as in point 4.1/ was repeated with a concentration of ZnO/3-hydroxybenzaldehyde colloids of 0.5 g/L and a concentration of tocopherol of 1.5 g/L.
The solutions obtained were separated: a fraction of the solution being placed in the dark, and the remaining fraction being placed under UV irradiation. After 30 minutes of exposure (to the dark or to UV), 30 μL of a concentrated solution of ABTS (7 mM) was added, and the absorption was then measured.

With tocopherol, the ABTS degradation capacity (after 30 minutes of exposure to UV) came out at 22% and the ABTS degradation capacity (after 30 minutes of exposure to the dark) was determined as 22%.
